From patent US20020058244A1, “Method for detecting uracil biosynthesis inhibitors and their use as herbicides” (priority 2000, published 2002)

How the values were obtained:
[1] = molecular target: T1, OPRTase (Rattus norvegicus, UniProt A0ACM8Q7Z8); settings: rat brain tissue; cited from earlier work
T1 construct: host or cells: rat brain tissue
T1 sequence (A0ACM8Q7Z8 1-481): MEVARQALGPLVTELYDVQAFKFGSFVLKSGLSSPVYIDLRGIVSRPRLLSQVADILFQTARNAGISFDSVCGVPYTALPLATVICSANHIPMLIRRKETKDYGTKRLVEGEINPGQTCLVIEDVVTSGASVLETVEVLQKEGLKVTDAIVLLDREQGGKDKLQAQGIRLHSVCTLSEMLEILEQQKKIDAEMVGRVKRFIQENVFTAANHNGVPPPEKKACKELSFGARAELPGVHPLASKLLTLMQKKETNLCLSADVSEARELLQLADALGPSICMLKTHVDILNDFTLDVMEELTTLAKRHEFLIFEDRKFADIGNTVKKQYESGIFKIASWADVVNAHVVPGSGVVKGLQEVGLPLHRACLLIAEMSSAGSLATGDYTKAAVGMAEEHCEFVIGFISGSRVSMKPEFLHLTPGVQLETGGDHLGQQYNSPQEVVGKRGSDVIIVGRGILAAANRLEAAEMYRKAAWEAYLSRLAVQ

[2] = test system: OPRTase/ODCase; test: In vitro enzymatic conversion of [14C]-orotate to UMP, cell free extract from corn root tissue; type: biochemical
Procedure: Etiolated corn roots and shoots or soybean suspension cells were used as tissue. Corn seedlings were germinated on vermiculite for 4 days in the dark at 26_C. and roots and shoots harvested separately. The soybean cells were grown in media consisting of Muashige and Skoog salts (Physiol. Plant (1962) 15:473-497) purchased from Gibco/BRL, vitamins (glycine 2 mg/L, thiamine 0.1 mg/L, nicotinic acid 0.5 mg/L, pyridoxine-HCl 0.5 mg/L), myo-inositol (100 mg/L), 2,4-D ([…]), and 30 g/L sucrose. Cell cultures are grown at 25° C. with gentle shaking. Cultures were transfered every 7 days to new growth media.
Approximately 5-10 g plant tissue were ground in liquid nitrogen and resuspended in 1:2 (w/v) homogenization buffer (30 mM KPO4^−; 25 mM […], 5 mM MgCl2, 5 mM ascorbic acid, pH 7.2). The homogenate was centrifuged at 10,000 g for 20 min, and the supernatant desalted using BioRad columns. The desalted supernatant was used for OPRTase/ODCase enzyme assays. For DHOD enzyme extraction, the supernatant was further centrifuged at 100,000 g for 45 min to obtain a microsomal pellet. The microsomal pellet was resuspended in 3-4 ml resuspension buffer (70 mM Tris-base, pH 7.4) containing 1% Triton X-100.
All enzyme assays were performed according to Rawls, J. M. (1978) Anal. Biochem. 86 (1): 107-117 and Cleaveland et al. (1995). Biochem. Pharm. 49(7):947-954. Enzyme assays were performed in a total volume of 200 ul with 1 uM [^14C]carbamoyl aspartate, [^14C]dihydroorotate or [^14C]orotate as substrates, and 1-5 mM probe compound or barbiturate as inhibitors. The [^14C]carbamoyl aspartate and [^14C]dihydroorotate assay was performed using a potassium phosphate buffer, pH 7.4 with 12 mM NAD^+, and 10 mM MgCl2. […] Over time, 25 ul aliquots were taken from the reaction tube and boiled for 5 min to stop the reaction. Samples were spotted onto cellulose TLC plates and run using 0.1 M potassium phosphate buffer, 100% ammonium sulfate, and 1-propanol (10:6:1). Plates were developed using a TLC plate radioisotope detector. Orotate and UMP standards were run next to unknowns to identify the conversion of [^14C]orotate to [^14C]UMP in the enzyme assay.

[3] = test system: whole plant; test: Whole plant injury by barbiturate; settings: in vivo
[4] = molecular target: uridine phosphorylase; settings: salvage pathway; cited from earlier work
[5] = molecular target: T2, dihyroorotate dehydrogenase (DHOD) (Rattus norvegicus, UniProt Q63707); settings: rat brain tissue; cited from earlier work
T2 construct: host or cells: rat brain tissue

[6] = molecular target: T3, ODCase (Rattus norvegicus, UniProt A0ACM8Q7Z8); settings: rat brain tissue; cited from earlier work
T3 construct: host or cells: rat brain tissue

T2 sequence (Q63707 whole entry): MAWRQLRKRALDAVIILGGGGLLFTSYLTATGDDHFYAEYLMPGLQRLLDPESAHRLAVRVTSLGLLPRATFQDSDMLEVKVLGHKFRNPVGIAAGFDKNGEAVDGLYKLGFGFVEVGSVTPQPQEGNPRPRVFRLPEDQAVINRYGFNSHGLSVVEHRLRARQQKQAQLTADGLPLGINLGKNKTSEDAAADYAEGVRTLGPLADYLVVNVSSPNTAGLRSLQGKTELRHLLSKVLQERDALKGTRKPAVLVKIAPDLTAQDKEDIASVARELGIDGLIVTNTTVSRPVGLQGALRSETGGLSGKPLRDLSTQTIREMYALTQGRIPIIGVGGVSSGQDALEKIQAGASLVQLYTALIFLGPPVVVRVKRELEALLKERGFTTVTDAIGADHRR

O=C1CC(=O)NC(=O)N1 [barbiturate, reference compound]
Ki [1]: 18 µM | inhibition of the conversion of orotic acid to UMP ([2]; 1 mM): 80% | inhibition of the conversion of orotic acid to UMP ([2]; 2 mM): 100% | radiolabeled orotate converted to UMP ([2]; 15 minutes after treatment, 100 μM PRPP, untreated control 55%): 20% | inhibition of the conversion of [14C]-orotate to UMP ([2]; FIG. 10, concentration not stated): 80% | effect on OPRTase/ODCase activity (conversion of [14C]-orotate to UMP) ([2]; cell free extract): inhibits | IC50 ([2]; corn root cell free extract, read-out: concentration at which there is 50% inhibition of UMP synthesis (IC50)): < 270 µM | whole plant injury [3]: does not cause whole plant injury | Ki [4]: 786 µM | Ki [5]: 412 µM | Ki [6]: 75 µM
